Key:
[1] = test system: hippocampal neurons derived from LRRK2 BAC transgenic mice; details: dose-dependent manner
LRRK2 = LRRK2 (Homo sapiens, UniProt Q5S007); assay: biochemical
Chain of LRRK2 (Q5S007 whole entry): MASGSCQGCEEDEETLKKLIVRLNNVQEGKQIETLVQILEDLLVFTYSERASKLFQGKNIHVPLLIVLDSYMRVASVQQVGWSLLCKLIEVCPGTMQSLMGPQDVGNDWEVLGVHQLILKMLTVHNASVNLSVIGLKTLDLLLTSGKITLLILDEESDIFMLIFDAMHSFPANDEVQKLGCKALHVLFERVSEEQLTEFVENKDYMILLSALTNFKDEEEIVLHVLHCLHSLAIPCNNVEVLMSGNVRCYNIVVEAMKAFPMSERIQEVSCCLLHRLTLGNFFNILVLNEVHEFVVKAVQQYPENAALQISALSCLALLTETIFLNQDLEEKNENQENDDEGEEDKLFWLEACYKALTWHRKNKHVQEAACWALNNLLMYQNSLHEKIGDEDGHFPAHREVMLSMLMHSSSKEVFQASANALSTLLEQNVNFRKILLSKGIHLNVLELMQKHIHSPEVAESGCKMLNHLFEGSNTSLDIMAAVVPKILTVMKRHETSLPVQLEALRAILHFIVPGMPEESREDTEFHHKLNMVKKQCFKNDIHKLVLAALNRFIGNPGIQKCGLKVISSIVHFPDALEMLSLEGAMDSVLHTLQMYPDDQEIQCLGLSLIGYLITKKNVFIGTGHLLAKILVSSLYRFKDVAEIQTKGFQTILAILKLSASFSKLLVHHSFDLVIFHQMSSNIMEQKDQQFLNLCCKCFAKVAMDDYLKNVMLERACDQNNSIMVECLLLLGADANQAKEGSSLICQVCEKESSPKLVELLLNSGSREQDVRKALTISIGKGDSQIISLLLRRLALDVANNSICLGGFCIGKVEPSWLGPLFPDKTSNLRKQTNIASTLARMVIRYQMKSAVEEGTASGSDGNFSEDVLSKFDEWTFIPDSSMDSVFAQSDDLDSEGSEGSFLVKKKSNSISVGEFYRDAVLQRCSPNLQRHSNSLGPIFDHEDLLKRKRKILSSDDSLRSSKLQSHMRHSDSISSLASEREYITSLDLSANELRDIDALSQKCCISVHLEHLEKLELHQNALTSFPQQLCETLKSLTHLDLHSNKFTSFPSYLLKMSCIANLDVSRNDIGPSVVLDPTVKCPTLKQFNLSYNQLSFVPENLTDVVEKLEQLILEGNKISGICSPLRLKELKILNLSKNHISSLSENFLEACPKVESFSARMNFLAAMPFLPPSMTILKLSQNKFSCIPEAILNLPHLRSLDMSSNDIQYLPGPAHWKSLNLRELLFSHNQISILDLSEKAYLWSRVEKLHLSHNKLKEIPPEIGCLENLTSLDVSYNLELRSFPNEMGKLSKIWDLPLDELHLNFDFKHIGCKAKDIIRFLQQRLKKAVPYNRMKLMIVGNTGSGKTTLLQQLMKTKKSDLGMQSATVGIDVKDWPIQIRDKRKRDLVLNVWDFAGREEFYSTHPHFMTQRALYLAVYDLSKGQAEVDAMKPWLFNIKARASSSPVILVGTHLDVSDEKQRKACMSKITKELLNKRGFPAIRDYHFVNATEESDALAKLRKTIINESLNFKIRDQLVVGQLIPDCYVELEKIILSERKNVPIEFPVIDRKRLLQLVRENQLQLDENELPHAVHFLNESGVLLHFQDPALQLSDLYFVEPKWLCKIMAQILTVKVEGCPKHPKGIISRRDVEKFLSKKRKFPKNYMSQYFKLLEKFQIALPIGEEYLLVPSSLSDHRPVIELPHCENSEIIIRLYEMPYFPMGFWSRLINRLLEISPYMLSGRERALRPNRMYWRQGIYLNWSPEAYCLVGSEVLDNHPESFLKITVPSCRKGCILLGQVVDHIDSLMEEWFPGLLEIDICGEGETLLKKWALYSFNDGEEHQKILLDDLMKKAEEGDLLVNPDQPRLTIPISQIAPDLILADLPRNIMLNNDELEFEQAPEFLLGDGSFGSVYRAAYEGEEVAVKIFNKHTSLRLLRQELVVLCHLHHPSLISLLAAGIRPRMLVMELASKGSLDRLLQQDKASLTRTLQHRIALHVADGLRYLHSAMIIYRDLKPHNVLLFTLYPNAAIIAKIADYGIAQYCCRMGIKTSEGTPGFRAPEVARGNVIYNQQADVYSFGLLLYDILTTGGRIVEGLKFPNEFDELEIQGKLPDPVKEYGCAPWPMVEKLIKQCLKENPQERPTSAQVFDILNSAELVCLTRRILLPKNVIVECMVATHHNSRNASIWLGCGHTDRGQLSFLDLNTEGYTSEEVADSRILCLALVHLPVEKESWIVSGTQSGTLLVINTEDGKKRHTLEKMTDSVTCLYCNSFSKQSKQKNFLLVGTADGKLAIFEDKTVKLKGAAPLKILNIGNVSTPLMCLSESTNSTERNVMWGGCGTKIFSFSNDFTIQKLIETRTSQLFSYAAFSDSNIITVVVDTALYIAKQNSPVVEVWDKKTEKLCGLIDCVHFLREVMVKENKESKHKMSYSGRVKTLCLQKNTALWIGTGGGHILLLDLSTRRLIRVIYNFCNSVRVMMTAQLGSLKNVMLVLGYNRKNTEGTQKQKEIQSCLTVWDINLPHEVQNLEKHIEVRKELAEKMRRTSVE

`CNc1nc(Nc2ccc(C(=O)N3CCOCC3)cc2OC)ncc1C(F)(F)F` [G1023, [3-methoxy-4-(4-methylamino-5-trifluoromethyl-pyrimidin-2-ylamino)-phenyl]-morpholin-4-yl-methanone] was tested, and the “neurite outgrowth defect (total neurite length)” value [1] was “reversed neurite outgrowth defect” and the Ki (LRRK2) was roughly 4 nM.

From patent publication US20140228384A1, “ASSAYS AND BIOMARKERS FOR LRRK2” (Genentech, Inc., priority 2011, published 2014)
